Laboratory results from ChEMBL document CHEMBL1201862, “PubChem BioAssay data set” (2004).
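1) Cells in 96-well plates. 2) Compound, 48 h, 5 concentrations. 3) Linear interpolation between surrounding doses. 4) Unreached endpoint = highest concentration. GI50 marks 50% less growth.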 Active and inactive are the calls of the source. No stated cut-off is given here; in the data, active = GI50 up to about 1.1 µM and inactive = higher.

Key:
Assay in all cases: NCI tumour cell line growth inhibition, 48 h
[1] = system: NCI-H23
[2] = system: HCT-116
[3] = system: KM-20L2
[4] = system: OVCAR-4
[5] = system: UO-31
[6] = system: KM12
[7] = system: OVCAR-5
[8] = system: Malme-3M
[9] = system: LOX IMVI
[10] = system: COLO 205
[11] = system: CAKI-1
[12] = system: SNB-75
[13] = system: SF-539
[14] = system: HOP-18
[15] = system: EKVX
[16] = system: OVCAR-3
[17] = system: NCI/ADR-RES
[18] = system: RPMI-8226
[19] = system: RXF 393
[20] = system: SK-MEL-2

Measured: GI50

S=P1(Sc2ccccc2)Oc2ccc3ccccc3c2-c2c(ccc3ccccc23)O1
inactive: [1] > 100 µM | [2] > 100 µM | [3] 67.1 µM | [4] > 100 µM | [5] > 100 µM | [6] > 100 µM | [7] > 100 µM | [8] > 100 µM | [9] > 79.6 µM | [10] > 100 µM | [11] > 83.9 µM | [12] > 100 µM | [13] > 100 µM | [14] > 92.5 µM | [15] > 100 µM | [16] 70 µM | [17] > 100 µM | [18] > 100 µM | [19] > 83 µM | [20] > 100 µM
